Reference: PubChem BioAssay (NCI)
Where “and” joins values, the source holds several entries; their conditions need not be identical. Identical values can stand only once.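 In this assay, cells in 96-well plates receive the compound at five concentrations for 48 hours. Endpoints are linearly interpolated between the surrounding concentrations. Here, GI50 denotes the concentration required for 50% inhibition of growth. Definition used: TGI = concentration required for complete inhibition of growth.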

How the values were obtained:
Assay in all cases: NCI tumour cell line growth inhibition, 48 h
[1] = tested on: A498 renal
[2] = tested on: CCRF-CEM leukemia
[3] = tested on: HCT-15 colon
[4] = tested on: NCI-H23 lung
[5] = tested on: OVCAR-3 ovarian
[6] = tested on: RXF-631 renal
[7] = tested on: SF-539 CNS
[8] = tested on: UO-31 renal
[9] = tested on: XF 498 CNS
[10] = tested on: HCT-116 colon
[11] = tested on: HL-60(TB) leukemia

| SMILES | TGI [1] | TGI [2] | TGI [3] | TGI [4] | TGI [5] | TGI [6] [µM] | TGI [7] | TGI [8] | TGI [9] [µM] | TGI [10] | TGI [11] [µM] | GI50 [1] [µM] | GI50 [2] | GI50 [10] | GI50 [3] [µM] | GI50 [4] | GI50 [5] [µM] | GI50 [7] [µM] | GI50 [8] [µM] |
| --- | --- | --- | --- | --- | --- | --- | --- | --- | --- | --- | --- | --- | --- | --- | --- | --- | --- | --- | --- |
| Cc1ccccc1CN1CC=c2ccccc2=N1 | > 100 µM | > 100 µM | > 100 µM | > 100 µM | > 100 µM | > 100 | > 100 µM | > 100 µM | > 100 | – | – | – | – | – | – | – | – | – | – |
| CN(C)CC1(C)CC/C(=C\c2ccccc2)C1=O (centres undefined) | > 100 µM | > 100 µM | > 100 µM | > 100 µM | > 100 µM | > 100 | > 100 µM | > 100 µM | > 100 | > 100 µM | – | – | – | – | – | – | – | – | – |
| CN(C)CCNC(=O)c1cccc2[nH]c(-c3ccccc3)nc12 | 26.7 µM | > 100 µM | 34.5 µM | 32.6 µM | 50.3 µM | 57.9 | 26.2 µM | 27.7 µM | – | 27.5 µM | 54.3 | – | – | – | – | – | – | – | – |
| O=C(Nc1nc2ncn(CC(COc3ccccc3)OC(=O)c3ccccc3)c2c(=O)[nH]1)c1ccccc1 (centres undefined) | > 100 µM | – | > 100 µM | – | > 100 µM | > 100 | > 100 µM | > 100 µM | > 100 | > 100 µM | > 100 | – | – | – | – | – | – | – | – |
| O=c1cnn2c(n1)sc1ccc3ccccc3c12 | – | > 100 µM | > 100 µM | > 100 µM | > 100 µM | – | > 100 µM | > 100 µM | > 100 | > 100 µM | > 100 | – | – | – | – | – | – | – | – |
| O=C(COc1ccccc1)NS(=O)(=O)c1ccccc1 | > 100 µM | > 100 µM | > 100 µM | > 100 µM | > 100 µM | > 100 | > 100 µM | > 100 µM | – | > 100 µM | > 100 | – | – | – | – | – | – | – | – |
| COc1ccc(C(c2c(O)c3ccccc3n(C)c2=O)c2c(O)c3ccccc3n(C)c2=O)cc1 | – | – | – | 66.7 µM | > 100 µM | > 100 | 63.3 µM | > 100 µM | > 100 | > 100 µM | 90.7 | – | – | – | – | – | – | – | – |
| C1=Cc2nc1c(-c1ccncc1)c1ccc([n-]1)c(-c1ccncc1)c1nc(c(-c3ccncc3)c3ccc([n-]3)c2-c2ccncc2)C=C1.[Zn+2] | – | > 100 µM | > 100 µM | > 100 µM | > 100 µM | > 100 | > 100 µM | > 100 µM | > 100 | > 100 µM | > 100 | – | – | – | – | – | – | – | – |
| O=C1C(=O)C(Br)(Br)C(Br)=C1Br | – | 57.1 µM | 41.9 µM | – | 29.1 µM | > 100 | 33.4 µM | 33.5 µM | – | – | 38.2 | – | – | – | – | – | – | – | – |
| COc1ccc2nc3ccccc3c(NCCCCCCN(C)CCCl)c2c1 | 2.53 µM | 0.348 µM | 2.01 µM | 1.04 µM | 3.12 µM | – | 2.11 µM | – | 0.845 | 1.22 µM | – | – | – | – | – | – | – | – | – |
| CCN(CC)C(=O)COc1ccc(Br)cc1Br | > 100 µM | > 100 µM | > 100 µM | > 100 µM | > 100 µM | > 100 | > 100 µM | > 100 µM | – | > 100 µM | > 100 | – | – | – | – | – | – | – | – |
| COC(=O)C(Cl)=C1CC1 | > 100 µM | 42.2 µM | 57.6 µM | > 100 µM | 65 µM | – | 69.1 µM | 89.9 µM | 88.7 | – | 51.3 | – | – | – | – | – | – | – | – |
| O=C(Nc1c(O)[nH]c(=S)[nH]c1=O)c1ccc2ccccc2n1 | > 100 µM | > 100 µM | > 100 µM | > 100 µM | > 100 µM | > 100 | > 100 µM | > 100 µM | – | > 100 µM | > 100 | – | – | – | – | – | – | – | – |
| CC(C)(C)C(=O)C1CC(=O)c2ccccc2C1=O (centres undefined) | 91.3 µM | > 100 µM | – | 45.3 µM | 71.4 µM | > 100 | > 100 µM | 67.8 µM | > 100 | 46.2 µM | 43.6 | – | – | – | – | – | – | – | – |
| Cc1ccc(Cl)c(NC(=O)C(=O)C(C(=O)c2ccncc2)C2OC(=O)c3ccccc32)c1 (centres undefined) | > 100 µM | > 100 µM | > 100 µM | > 100 µM | – | > 100 | > 100 µM | > 100 µM | > 100 | > 100 µM | > 100 | – | – | – | – | – | – | – | – |
| Cc1cc(Cl)ccc1N=C1NC(=O)C(CC(=O)Nc2ccc(Cl)cc2Cl)S1 (centres undefined) | – | > 100 µM | > 100 µM | > 100 µM | > 100 µM | > 100 | > 100 µM | > 100 µM | > 100 | – | – | – | – | – | – | – | – | – | – |
| Nc1c(-c2ccc(Cl)cc2Cl)[n+]([O-])c2ccccc2[n+]1[O-] | > 100 µM | > 100 µM | > 100 µM | > 100 µM | > 100 µM | > 100 | > 100 µM | > 100 µM | > 100 | – | > 100 | – | – | – | – | – | – | – | – |
| CS(=O)(=O)Nc1ccc(Nc2c3ccccc3nc3ccccc23)cc1 | 16.3 µM | 26.4 µM | 23.5 µM | 25.8 µM | 18.7 µM | 16.9 | 20.2 µM | 12.5 µM | 14.9 | 15 µM | 9.19 | – | – | – | – | – | – | – | – |
| Nc1ccn(C2CC(CO)C(O)C2O)c(=O)n1 (centres undefined) | > 57.7 µM | – | > 57.7 µM | – | > 57.7 µM | > 57.7 | > 57.7 µM | > 57.7 µM | – | > 57.7 µM | > 57.7 | – | – | – | – | – | – | – | – |
| CO[C@@H]1[C@H](OC(=O)NC(=O)CCl)CC[C@]2(CO2)[C@H]1[C@@]1(C)O[C@@H]1CC=C(C)C | 33.5 µM and 74 µM | 18 µM and 28.4 µM | 56.1 µM and 35.7 µM | 37 µM and 30.8 µM | 21.3 µM and 30.7 µM | 3.14 | 23.8 µM and 46.9 µM | 26.6 µM and 46.2 µM | – | 28.7 µM and 40.9 µM | 14.8 | 38.6 | 1.98 µM and 5.49 µM | 2.77 µM and 11.2 µM and 2.96 µM | 5.15 | 2.99 µM and 5.94 µM | 8.68 | 21.3 | 16.1 |
| COC(=O)[C@]1(C)CCC[C@@]2(C)C1CCC1=CC3(C(C)C)CCC12OO3 (some centres undefined) | > 100 µM | > 100 µM | > 100 µM | > 100 µM | > 100 µM | > 100 | > 100 µM | > 100 µM | – | > 100 µM | 37.8 | – | – | – | – | – | – | – | – |
